# Experiments:
# Assay in all cases: NCI-60 screening, one-dose (10 µM) and five-dose, SRB
# Type in all cases: cell-based, human
# HL-60(TB) = conditions: HL-60(TB)
# RPMI-8226 = conditions: RPMI-8226
# A549/ATCC = tested on: A549/ATCC
# NCI-H226 = tested on: NCI-H226
# NCI-H23 = tested on: NCI-H23
# NCI-H322M = tested on: NCI-H322M
# NCI-H460 = tested on: NCI-H460
# COLO 205 = tested on: COLO 205
# HCC-2998 = tested on: HCC-2998
# HCT-15 = tested on: HCT-15
# HT29 = tested on: HT29
# KM12 = conditions: five-dose, KM12
# SW-620 = tested on: SW-620
# LOX IMVI = tested on: LOX IMVI
# MALME-3M = tested on: MALME-3M
# [1] = Homo sapiens, five-dose, read-out: LC50 (the source's name)
# [2] = Homo sapiens, five-dose, NCI-H226
# [3] = Homo sapiens, five-dose, NCI-H23
# [4] = Homo sapiens, five-dose, NCI-H460
# [5] = Homo sapiens, five-dose, COLO 205
# [6] = Homo sapiens, five-dose, HCC-2998
# [7] = Homo sapiens, five-dose, HCT-15
# [8] = Homo sapiens, HT-29, five-dose, HT29
# [9] = Homo sapiens, five-dose, SW-620
compound,measurement,setting,value
"Cc1nc(SCC(=O)N2CCN(c3cc4c(cc3F)c(=O)c(C(=O)O)cn4C3CC3)CC2)sc1C(=O)/C=C/c1cccc(Cl)c1 [Compound 4b, (E)-7-(4-(2-((5-(3-(3-Chlorophenyl)acryloyl)-4-methylthiazol-2-yl)thio)acetyl)piperazin-1-yl)-1-cyclopropyl-6-fluoro-4-oxo-1,4-dihydroquinoline-3-carboxylic Acid]",IC50,"HL-60(TB); Homo sapiens, HL-60, five-dose",3.7 µM
same,GI50,"HL-60(TB); Homo sapiens, five-dose",2.6 µM
same,CC50,HL-60(TB); [1],34.7 µM
same,TGI,HL-60(TB); five-dose,11.2 µM
same,IC50,"RPMI-8226; Homo sapiens, RPMI-8226, five-dose",0.3 µM
same,GI50,"RPMI-8226; Homo sapiens, five-dose",0.2 µM
same,CC50,RPMI-8226; [1],0.6 µM
same,TGI,RPMI-8226; five-dose,0.3 µM
same,activity at 10 µM,"A549/ATCC; Homo sapiens, 10 μM, Non-Small-Cell Lung Cancer, read-out: Growth percentage",82.4%
same,GI50,"A549/ATCC; Homo sapiens, five-dose",> 100 µM
same,IC50,"A549/ATCC; Homo sapiens, five-dose",> 100 µM
same,CC50,A549/ATCC; [1],> 100 µM
same,TGI,A549/ATCC; five-dose,100.0 µM
same,activity at 10 µM,"NCI-H226; Homo sapiens, 10 μM, NCI-H226, Non-Small-Cell Lung Cancer, read-out: Growth percentage",80.9%
same,GI50,NCI-H226; [2],> 100 µM
same,IC50,NCI-H226; [2],> 100 µM
same,LC50 (concentration killing 50% of cells),NCI-H226; [2],> 100 µM
same,TGI,"NCI-H226; five-dose, NCI-H226",100.0 µM
same,activity at 10 µM,"NCI-H23; Homo sapiens, 10 μM, NCI-H23, Non-Small-Cell Lung Cancer, read-out: Growth percentage",54%
same,GI50,NCI-H23; [3],> 100 µM
same,IC50,NCI-H23; [3],> 100 µM
same,LC50 (50% lethal concentration),NCI-H23; [3],> 100 µM
same,TGI,"NCI-H23; five-dose, NCI-H23",100.0 µM
same,Growth percentage,"NCI-H322M; 10 μM, Non-Small-Cell Lung Cancer",100.9%
same,GI50,"NCI-H322M; Homo sapiens, five-dose",> 100 µM
same,IC50,"NCI-H322M; Homo sapiens, five-dose",> 100 µM
same,LC50,"NCI-H322M; Homo sapiens, five-dose",> 100 µM
same,TGI,NCI-H322M; five-dose,100.0 µM
same,activity at 10 µM,"NCI-H460; Homo sapiens, NCI-H460, 10 μM, NCI-H460, Non-Small-Cell Lung Cancer, read-out: Growth percentage",76.7%
same,GI50,NCI-H460; [4],58.9 µM
same,IC50,NCI-H460; [4],70.8 µM
same,CC50,"NCI-H460; Homo sapiens, five-dose, NCI-H460, read-out: LC50 (the source's name)",> 100 µM
same,TGI,"NCI-H460; five-dose, NCI-H460",100.0 µM
same,activity at 10 µM,"COLO 205; Homo sapiens, 10 μM, COLO 205, Colon Cancer, read-out: Growth percentage",114%
same,GI50,COLO 205; [5],4.3 µM
same,IC50,COLO 205; [5],6.2 µM
same,CC50,"COLO 205; Homo sapiens, five-dose, COLO 205, read-out: LC50 (the source's name)",> 100 µM
same,TGI,"COLO 205; five-dose, COLO 205",100.0 µM
same,activity at 10 µM,"HCC-2998; Homo sapiens, 10 μM, HCC-2998, Colon Cancer, read-out: Growth percentage",25.6%
same,GI50,HCC-2998; [6],1.2 µM
same,IC50,HCC-2998; [6],2.2 µM
same,TGI,"HCC-2998; five-dose, HCC-2998",2.9 µM
same,activity at 10 µM,"HCT-15; Homo sapiens, 10 μM, HCT-15, Colon Cancer, read-out: Growth percentage",26.9%
same,IC50,HCT-15; [7],> 100 µM
same,LC50 (50% lethal concentration),HCT-15; [7],> 100 µM
same,TGI,"HCT-15; five-dose, HCT-15",100.0 µM
same,activity at 10 µM,"HT29; Homo sapiens, HT-29, 10 μM, HT29, Colon Cancer, read-out: Growth percentage",24.4%
same,GI50,HT29; [8],> 100 µM
same,IC50,HT29; [8],> 100 µM
same,CC50,"HT29; Homo sapiens, HT-29, five-dose, HT29, read-out: LC50 (the source's name)",> 100 µM
same,TGI,"HT29; five-dose, HT29",100.0 µM
same,GI50,KM12; Homo sapiens,0.9 µM
same,IC50,KM12; Homo sapiens,1.3 µM
same,LC50,KM12; Homo sapiens,9.3 µM
same,TGI,KM12,3.0 µM
same,activity at 10 µM,"SW-620; Homo sapiens, 10 μM, SW-620, Colon Cancer, read-out: Growth percentage",53.3%
same,GI50,SW-620; [9],10.5 µM
same,IC50,SW-620; [9],15.1 µM
same,CC50,"SW-620; Homo sapiens, five-dose, SW-620, read-out: LC50 (the source's name)",> 100 µM
same,TGI,"SW-620; five-dose, SW-620",40.7 µM
same,activity at 10 µM,"LOX IMVI; Homo sapiens, 10 μM, Melanoma, read-out: Growth percentage",36.9%
same,GI50,"LOX IMVI; Homo sapiens, five-dose",2.4 µM
same,IC50,"LOX IMVI; Homo sapiens, five-dose",3 µM
same,CC50,LOX IMVI; [1],> 100 µM
same,TGI,LOX IMVI; five-dose,100.0 µM
same,Growth percentage,"MALME-3M; 10 μM, Melanoma",143.6%
same,GI50,"MALME-3M; Homo sapiens, five-dose",> 100 µM
